Results from BindingDB's records for doi:10.1038/sj.bjp.0705964 (Johnson & Johnson Pharmaceutical Research and Development, 2004).

Assays:
[1] = molecular target: Histamine H4 receptor (Homo sapiens, UniProt Q9H3N8)
[2] = molecular target: Histamine H2 receptor (Homo sapiens, UniProt P25021)
[3] = molecular target: Hrh3 protein (Rattus norvegicus, UniProt Q5PPG3)
Chain of Hrh3 protein (Q5PPG3 whole entry): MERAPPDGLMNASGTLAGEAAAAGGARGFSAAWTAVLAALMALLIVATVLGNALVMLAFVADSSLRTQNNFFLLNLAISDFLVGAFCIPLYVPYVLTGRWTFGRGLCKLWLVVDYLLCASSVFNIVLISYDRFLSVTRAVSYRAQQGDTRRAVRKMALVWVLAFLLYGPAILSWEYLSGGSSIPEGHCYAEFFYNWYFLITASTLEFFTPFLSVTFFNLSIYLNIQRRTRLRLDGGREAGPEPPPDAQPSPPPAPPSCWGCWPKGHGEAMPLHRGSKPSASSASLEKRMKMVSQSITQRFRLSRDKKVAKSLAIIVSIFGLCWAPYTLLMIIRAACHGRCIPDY

Chain of Histamine H2 receptor (P25021 whole entry): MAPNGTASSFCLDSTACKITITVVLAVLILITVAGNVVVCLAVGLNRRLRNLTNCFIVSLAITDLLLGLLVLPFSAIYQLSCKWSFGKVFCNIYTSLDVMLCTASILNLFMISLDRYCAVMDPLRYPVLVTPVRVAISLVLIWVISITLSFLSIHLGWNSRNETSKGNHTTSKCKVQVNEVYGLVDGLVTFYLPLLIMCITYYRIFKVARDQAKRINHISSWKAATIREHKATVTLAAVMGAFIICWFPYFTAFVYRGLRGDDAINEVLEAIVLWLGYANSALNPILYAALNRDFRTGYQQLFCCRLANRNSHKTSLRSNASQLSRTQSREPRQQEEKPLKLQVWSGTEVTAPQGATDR

Ki [1]: > 10 µM
Ki [2]: > 10 µM
Ki [3]: 0.00126 µM
Compound: c1cc(OCCCN2CCCCC2)ccc1CN1CCCCC1 [1-(3-(4-(piperidin-1-ylmethyl)phenoxy)propyl)piperidine]
